Reference: ChEMBL document CHEMBL6096721, “Discovery of Selenium-Containing Derivatives as Potent and Orally Bioavailable GLP-1R Agonists” (J Med Chem, 2025)
Each block holds one molecule with its values, some of them ahead of it.

Experiments:
[1] = molecular target: T1, Glucagon-like peptide 1 receptor (Homo sapiens, UniProt P43220); test: Binding affinity to human GLP-1R assessed as association rate constant by SPR analysis; conditions: filed as agonist
[2] = Oral bioavailability in male rat at 5 mg/kg; format: ADME, organism-based; conditions: in vivo
[3] = Half-life in male rat at 1 mg/kg, iv; format: ADME, organism-based; conditions: in vivo
[4] = Cmax in male ICR mouse at 2 mg/kg, iv measured after 24 hrs by LC-MS/MS analysis; format: ADME, organism-based; conditions: in vivo
[5] = Oral bioavailability in male ICR mouse at 10 mg/kg measured after 24 hrs by LC-MS/MS analysis; format: ADME, organism-based; conditions: in vivo
[6] = MRT (0 to t) in male ICR mouse at 2 mg/kg, iv measured after 24 hrs by LC-MS/MS analysis; format: ADME, organism-based; conditions: in vivo
[7] = AUC (0 to t) in male ICR mouse at 2 mg/kg, iv measured after 24 hrs by LC-MS/MS analysis; format: ADME, organism-based; conditions: in vivo
[8] = Cmax in male ICR mouse at 10 mg/kg, po measured after 24 hrs by LC-MS/MS analysis; format: ADME, organism-based; conditions: in vivo
[9] = Half-life in male ICR mouse at 2 mg/kg, iv measured after 24 hrs by LC-MS/MS analysis; format: ADME, organism-based; conditions: in vivo
[10] = molecular target: T1, Glucagon-like peptide 1 receptor; test: Partial agonist activity at LgBit-tagged GLP-1R (unknown origin) transfected in HEK293 cells co-transfected with Smbit-tagged beta-arrestin-1 assessed as beta-arrestin recruitment incubated for 5 mins by envision microplate reader analysis; format: functional, cell-based
[11] = Half-life in male ICR mouse at 10 mg/kg, po measured after 24 hrs by LC-MS/MS analysis; format: ADME, organism-based; conditions: in vivo
[12] = molecular target: T1, Glucagon-like peptide 1 receptor; test: Partial agonist activity at LgBit-tagged GLP-1R (unknown origin) transfected in HEK293 cells co-transfected with Smbit-tagged beta-arrestin-1 assessed as beta-arrestin recruitment by measuring maximal efficacy incubated for 5 mins by envision microplate reader analysis relative to control; format: functional, cell-based
[13] = Apparent volume of distribution in male ICR mouse at 2 mg/kg, iv measured after 24 hrs by LC-MS/MS analysis; format: ADME, organism-based; conditions: in vivo, read-out: Vz
[14] = MRT (0 to t) in male ICR mouse at 10 mg/kg, po measured after 24 hrs by LC-MS/MS analysis; format: ADME, organism-based; conditions: in vivo
[15] = AUC (0 to t) in male ICR mouse at 10 mg/kg, po measured after 24 hrs by LC-MS/MS analysis; format: ADME, organism-based; conditions: in vivo
[16] = Clearance in male ICR mouse at 2 mg/kg, iv measured after 24 hrs by LC-MS/MS analysis; format: ADME, organism-based; conditions: in vivo
[17] = Tmax in male ICR mouse at 10 mg/kg, po measured after 24 hrs by LC-MS/MS analysis; format: ADME, organism-based; conditions: in vivo
[18] = molecular target: T1, Glucagon-like peptide 1 receptor; test: Agonist activity at human GLP-1R expressed in HEK293 cells assessed as cAMP accumulation incubated for 30 mins by LANCE ultra cAMP assay; format: functional, cell-based

T1 sequence (P43220 whole entry): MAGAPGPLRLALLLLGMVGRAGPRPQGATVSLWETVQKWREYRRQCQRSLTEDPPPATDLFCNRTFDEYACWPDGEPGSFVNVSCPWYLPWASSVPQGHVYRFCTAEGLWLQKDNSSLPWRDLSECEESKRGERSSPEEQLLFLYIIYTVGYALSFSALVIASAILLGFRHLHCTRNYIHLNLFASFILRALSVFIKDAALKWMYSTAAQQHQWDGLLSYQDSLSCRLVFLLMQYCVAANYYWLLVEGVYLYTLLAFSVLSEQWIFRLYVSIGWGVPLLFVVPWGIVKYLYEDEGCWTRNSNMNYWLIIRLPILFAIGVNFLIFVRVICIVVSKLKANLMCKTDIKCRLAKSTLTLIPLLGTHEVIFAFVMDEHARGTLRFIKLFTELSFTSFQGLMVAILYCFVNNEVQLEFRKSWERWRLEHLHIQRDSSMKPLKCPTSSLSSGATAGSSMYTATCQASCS

Ka [1]: 7.94 10^5/M.s
Molecule: SEMAGLUTIDE

bioavailability [2]: 23.4% | half-life [3]: 28.2 min
Molecule: N#Cc1ccc(C[Se]c2cccc(C3CCN(Cc4nc5ccc(C(=O)O)cc5n4C[C@@H]4CCO4)CC3)n2)c(F)c1

Cmax [4]: 16500 ng/mL | bioavailability [5]: 3.2% | MRT last at 24 h [6]: 23.4 min | AUC(0-t) at 24 h [7]: 3720 ng·h/mL | Cmax [8]: 283 ng/mL | half-life [9]: 343 min | EC50 [10]: > 200 µM | half-life [11]: 364 min | Emax [12]: 28% | Vd [13]: 4.27 L/kg | MRT last at 24 h [14]: 3.21 h | AUC(0-t) at 24 h [15]: 582 ng·h/mL | clearance [16]: 9.05 mL/min/kg | Tmax [17]: 25.2 min
Molecule: COc1cc(C(F)(F)F)ccc1C[Se]c1cccc(N2C=NN(Cc3nc4c(F)cc(C(=O)O)cc4n3C[C@@H]3CCO3)CC2)n1

EC50 [18]: > 200 µM
Molecule: CC(C)[C@H](NCc1nc2ccc(C(=O)O)cc2n1C[C@@H]1CCO1)C(=O)Nc1cccc([Se]Cc2ccc(C#N)cc2F)n1
